Data from patent US20250160350A1, “BIOACTIVE MOLECULES IN YOGURT” (Phytoquest Limited, priority 2022, published 2025).
Where a name gives a salt, the structure may show the parent alone. Read-outs that look alike come from different tables or passages of the source. Values belong to the compound of their own block, whether it stands above or below them.

Legend:
[1] = biological target: T1, human recombinant β-glucocerebrosidase (Cerezyme) (Homo sapiens, UniProt P04062, R534H); experiment: β-glucocerebrosidase assay (Cerezyme/imiglucerase, PNP β-glucopyranoside, pH 5.9); assay type: biochemical; conditions: for inhibition at 5000 µg/mL / % inhibition Cerezyme (β-glucocerebrosidase): Conc 5 mg/ml; for effect on β-glucocerebrosidase activity, in words: in vitro; for inhibition at 10000 µg/mL: Conc 10 mg/ml; for % inhibition glucocerebrosidase (GC) Genzyme: 0.8 mM
T1 construct: purchased Genzyme, Europe
T1 sequence (P04062 40-536 R534H): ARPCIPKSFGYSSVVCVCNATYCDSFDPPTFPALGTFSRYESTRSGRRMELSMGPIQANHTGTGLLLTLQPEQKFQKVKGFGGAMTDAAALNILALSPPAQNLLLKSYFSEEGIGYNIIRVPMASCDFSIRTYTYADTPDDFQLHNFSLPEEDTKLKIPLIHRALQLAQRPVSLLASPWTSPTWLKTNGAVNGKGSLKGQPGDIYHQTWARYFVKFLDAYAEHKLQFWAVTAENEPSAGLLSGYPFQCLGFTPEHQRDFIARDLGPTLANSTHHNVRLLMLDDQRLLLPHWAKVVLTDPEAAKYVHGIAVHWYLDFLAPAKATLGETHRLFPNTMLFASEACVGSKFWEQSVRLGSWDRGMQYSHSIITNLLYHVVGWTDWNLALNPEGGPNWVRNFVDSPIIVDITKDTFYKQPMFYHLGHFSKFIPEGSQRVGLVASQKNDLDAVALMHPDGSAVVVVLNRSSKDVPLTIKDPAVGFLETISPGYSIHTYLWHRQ
Description: An exemplary assay is-uses human recombinant imiglucerase (obtained from Genzyme, Europe) and is conducted at 27° C. in 0.1 M citric acid/0.2 M disodium hydrogen phosphate buffer at pH 5.9. The incubation mixture consists of 10 μL of enzyme solution, 10 μL of aqueous solution of test material (e.g., yogurt, yogurt extract or isolated cyclic guanidine compound) at the required concentration and 50 μL of 5 mM para-nitrophenyl (PNP) B glucopyranoside (Sigma-Aldrich) made up in buffer at pH 5.9. The reactions are stopped by addition of 70 μL 0.4 M glycine (pH 10.4) during the exponential phase of the reaction, which is previously determined using uninhibited assays in which water replaces inhibitor. Final absorbances were read at 405 nm using a Versamax microplate reader (Molecular Devices). Assays are carried out in triplicate, and the values given are means of the three replicates per assay. A negative value indicates enzyme activation.
Glycosidase assays. Most enzymes and para-nitrophenyl substrates were purchased from Sigma with the exception of human recombinant β-glucocerebrosidase (Cerezyme) obtained from Genzyme, Europe. Pure iminosugars which inhibit β-glucosidases (DMDP and calystegine B2) were used as controls. Yogurt samples were tested at 1 mg/ml. Enzymes were assayed at 27° C. in 0.1 M citric acid/0.2 M disodium hydrogen phosphate buffers at the optimum pH for the enzyme (pH 5.9 for Cerezyme). The incubation mixture consisted of 10 μL enzyme solution, 10 μL of 1 mg/mL aqueous inhibitor solution and 50 μL of the appropriate 5 mM para-nitrophenyl substrate made up in buffer at the optimum pH for the enzyme. Cerezyme was assayed against para-nitrophenyl (PNP) β-glucopyranoside. […] Final absorbances were read at 405 nm using a Versamax microplate reader (Molecular Devices). Assays were performed in triplicate and the mean percentage inhibitions used. A negative value indicates enzyme activation.
Glycosidase Assays. β-glucocerebrosidase enzyme (Human recombinant imiglucerase, obtained from Genzyme, Europe) were carried at 27° C. in 0.1 M citric acid/0.2 M disodium hydrogen phosphate buffer at pH 5.9. The incubation mixture consisted of 10 μL of enzyme solution, 10 μL of aqueous solution of extract or compound at the required concentration and 50 μL of 5 mM para-nitrophenyl (PNP) β-glucopyranoside (Sigma-Aldrich) made up in buffer at pH 5.9. […] Final absorbances were read at 405 nm using a Versamax microplate reader (Molecular Devices). Assays were carried out in triplicate and the values given are means. Results are shown as % inhibition where a negative value indicates enzyme activation.
β-glucocerebrosidase enzyme (Human recombinant imiglucerase, obtained from Genzyme, Europe) were carried at 27° C. in 0.1 M citric acid/0.2 M disodium hydrogen phosphate buffer at pH 5.9. […] Final absorbances were read at 405 nm using a Versamax microplate reader (Molecular Devices). Assays were carried out in triplicate, and the values given are means of the three replicates per assay. A negative value indicates enzyme activation.

[2] = test system: GCase; conditions: in vitro and in mice, tissue-specific (Sun et al. 2012); cited from earlier work
[3] = test system: N-acetyl-β-D gluc Bovine kidney; experiment: Glycosidase assay, N-acetyl-β-D gluc Bovine kidney; assay type: biochemical; conditions: negative value = activation; for % inhibition N-acetyl-β-D gluc Bovine kidney: 0.8 mM
Description: (§1) Glycosidase assays. Most enzymes and para-nitrophenyl substrates were purchased from Sigma with the exception of human recombinant β-glucocerebrosidase (Cerezyme) obtained from Genzyme, Europe. Pure iminosugars which inhibit β-glucosidases (DMDP and calystegine B2) were used as controls. Yogurt samples were tested at 1 mg/ml. Enzymes were assayed at 27° C. in 0.1 M citric acid/0.2 M disodium hydrogen phosphate buffers at the optimum pH for the enzyme (pH 5.9 for Cerezyme). The incubation mixture consisted of 10 μL enzyme solution, 10 μL of 1 mg/mL aqueous inhibitor solution and 50 μL of the appropriate 5 mM para-nitrophenyl substrate made up in buffer at the optimum pH for the enzyme. Cerezyme was assayed against para-nitrophenyl (PNP) β-glucopyranoside. The reactions were stopped by addition of 70 μL 0.4 M glycine (pH 10.4) during the exponential phase of the reaction, which had been determined at the beginning using uninhibited assays in which water replaced inhibitor. Final absorbances were read at 405 nm using a Versamax microplate reader (Molecular Devices). Assays were performed in triplicate and the mean percentage inhibitions used. A negative value indicates enzyme activation.

[4] = test system: α-D-glucosidase Yeast; experiment: Glycosidase assay, α-D-glucosidase Yeast; assay type: biochemical; conditions: negative value = activation
Description: as §1

[5] = test system: β-D-glucosidase almond; experiment: Glycosidase assay, β-D-glucosidase almond; assay type: biochemical; conditions: negative value = activation
Description: as §1

[6] = biological target: T2, α-D-mannosidase Jack bean (Canavalia ensiformis, UniProt C0HJB3); experiment: Glycosidase assay, α-D-mannosidase Jack bean; assay type: biochemical; conditions: 0.8 mM; negative value = activation
T2 construct: purchased Sigma
T2 sequence (C0HJB3 1-981): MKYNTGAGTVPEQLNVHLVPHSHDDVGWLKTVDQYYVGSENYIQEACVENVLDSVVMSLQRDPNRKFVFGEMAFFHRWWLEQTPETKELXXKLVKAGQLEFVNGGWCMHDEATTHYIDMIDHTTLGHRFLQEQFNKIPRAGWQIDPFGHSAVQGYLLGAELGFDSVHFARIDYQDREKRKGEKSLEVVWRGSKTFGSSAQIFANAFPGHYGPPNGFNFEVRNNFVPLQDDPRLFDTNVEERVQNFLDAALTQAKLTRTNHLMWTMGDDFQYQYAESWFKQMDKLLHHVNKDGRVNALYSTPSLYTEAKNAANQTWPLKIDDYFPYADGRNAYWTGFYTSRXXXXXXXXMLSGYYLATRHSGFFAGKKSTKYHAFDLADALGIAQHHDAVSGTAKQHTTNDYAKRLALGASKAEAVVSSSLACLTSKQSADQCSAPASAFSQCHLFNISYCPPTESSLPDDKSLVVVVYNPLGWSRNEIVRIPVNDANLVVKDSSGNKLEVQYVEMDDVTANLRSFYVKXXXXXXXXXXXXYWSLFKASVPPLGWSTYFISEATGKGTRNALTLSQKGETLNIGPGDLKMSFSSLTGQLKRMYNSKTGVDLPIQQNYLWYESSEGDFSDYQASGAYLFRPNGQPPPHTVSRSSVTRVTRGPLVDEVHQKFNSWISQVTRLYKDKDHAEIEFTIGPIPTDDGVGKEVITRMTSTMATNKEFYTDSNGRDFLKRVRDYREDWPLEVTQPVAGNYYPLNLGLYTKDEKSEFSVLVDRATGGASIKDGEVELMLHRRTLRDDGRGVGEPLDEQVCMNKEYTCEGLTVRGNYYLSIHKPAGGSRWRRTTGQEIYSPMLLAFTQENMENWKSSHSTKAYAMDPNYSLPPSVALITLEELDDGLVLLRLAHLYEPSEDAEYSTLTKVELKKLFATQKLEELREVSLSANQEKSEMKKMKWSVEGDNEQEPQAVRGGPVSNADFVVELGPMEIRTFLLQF
Description: as §1

[7] = test system: α-D-glucosidase Bacillus; experiment: Glycosidase assay, α-D-glucosidase Bacillus; assay type: biochemical; conditions: 0.8 mM; negative value = activation
Description: as §1

[8] = test system: N-acetyl-β-D-gluc Jack bean; experiment: Glycosidase assay, N-acetyl-β-D-gluc Jack bean; assay type: biochemical; conditions: 0.8 mM; negative value = activation
Description: as §1

[9] = test system: β-D-mannosidase C. fimi; experiment: Glycosidase assay, β-D-mannosidase C. fimi; assay type: biochemical; conditions: 0.8 mM; negative value = activation
Description: as §1

[10] = biological target: T3, α-D-galactosidase Green coffee (Coffea arabica, UniProt Q42656); experiment: Glycosidase assay, α-D-galactosidase Green coffee; assay type: biochemical; conditions: 0.8 mM; negative value = activation
T3 construct: purchased Sigma
T3 sequence (Q42656 16-378): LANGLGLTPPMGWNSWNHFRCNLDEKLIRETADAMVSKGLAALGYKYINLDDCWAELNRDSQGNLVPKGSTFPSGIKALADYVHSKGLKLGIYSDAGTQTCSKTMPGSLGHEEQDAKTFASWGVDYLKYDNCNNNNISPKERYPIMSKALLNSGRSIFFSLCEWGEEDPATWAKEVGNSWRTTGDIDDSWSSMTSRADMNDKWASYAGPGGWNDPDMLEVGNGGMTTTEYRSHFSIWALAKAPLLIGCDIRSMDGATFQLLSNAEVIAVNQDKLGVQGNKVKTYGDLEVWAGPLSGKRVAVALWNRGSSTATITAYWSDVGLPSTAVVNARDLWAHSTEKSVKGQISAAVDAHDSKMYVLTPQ
Description: as §1

[11] = test system: α-D-glucosidase rat intestine; experiment: Glycosidase assay, α-D-glucosidase rat intestine; assay type: biochemical; conditions: 0.8 mM; negative value = activation
Description: as §1

[12] = test system: β-D-galactosidase bovine liver; experiment: Glycosidase assay, β-D-galactosidase bovine liver; assay type: biochemical; conditions: 0.8 mM; negative value = activation
Description: as §1

[13] = test system: GCase; conditions: literature (Ambrosi et al. 2015); cited from earlier work
[14] = test system: GCase; conditions: PD patients with and without GBA1 mutation; cited from earlier work
[15] = pH 5.9, negative value = activation

Structure (SMILES): O=C(/C=C/c1ccc(O)c(O)c1)O[C@@H]1C[C@](O)(C(=O)O)C[C@@H](O)[C@H]1O [chlorogenic acid]
inhibition at 5000 µg/mL [1, 15]: 57.1%
effect on β-glucocerebrosidase activity, in words [1]: inhibited the enzyme

Structure (SMILES): OC[C@H]1CNC[C@@H](O)[C@@H]1O [isofagomine]
GCase activity [2]: increase GCase activity in vitro and in mice

Structure (SMILES): C[n+]1cccc(C(=O)[O-])c1 [trigonelline]
inhibition at 1000 µg/mL ([1]; Conc 1 mg/ml, pH 5.9, negative value = activation): 3.1%
inhibition at 5000 µg/mL [1, 15]: -12.6%

Structure (SMILES): C[N+](C)(C)CC(=O)O [betaine]
inhibition at 10000 µg/mL [1, 15]: 0.1%

Structure (SMILES): CN1C(=N)NC[C@H]1C(=O)O [Compound 1, (S)-2-imino-3-methylimidazolidine-4-carboxylic acid]
effect on β-glucocerebrosidase activity, in words [1]: strong promotion equalling that of the yogurt purified compound
effect on β-glucocerebrosidase activity, in words ([1]; listed as (S)-2-imino-3-methylimidazolidine-4-carboxylic acid): effective at promoting the enzyme activity in vitro
% inhibition N-acetyl-β-D-gluc Bovine kidney ([3]; 8 mM): 34%
% inhibition α-D-glucosidase Yeast ([4]; 8 mM): 44%
% inhibition β-D-glucosidase almond ([5]; 8 mM): 20%

Structure (SMILES): OC[C@H]1N[C@H](CO)[C@@H](O)[C@@H]1O [DMDP]
% inhibition glucocerebrosidase (GC) Genzyme [1, 15]: 44%
% inhibition α-D-mannosidase Jack bean [6]: 3%
% inhibition N-acetyl-β-D gluc Bovine kidney [3]: −7%
% inhibition α-D-glucosidase Yeast ([4]; 0.8 mM): 100%
% inhibition α-D-glucosidase Bacillus [7]: 93%
% inhibition N-acetyl-β-D-gluc Jack bean [8]: −7%
% inhibition β-D-mannosidase C. fimi [9]: 93%
% inhibition α-D-galactosidase Green coffee [10]: 7%
% inhibition α-D-glucosidase rat intestine [11]: 77%
% inhibition β-D-galactosidase bovine liver [12]: 99%
% inhibition β-D-glucosidase almond ([5]; 0.8 mM): 97%

Structure (SMILES): Nc1c(Br)cc(Br)cc1CN[C@H]1CC[C@H](O)CC1 [Ambroxol hydrochloride]
GCase activity [13]: enhance GCase activity
α-syn clearance [13]: increase α-syn clearance
GCase activity in patients [14]: increased the GCase activity

Structure (SMILES): O[C@@H]1[C@@H](O)[C@H](O)[C@]2(O)CC[C@H]1N2 [Calystegine B2]
% inhibition glucocerebrosidase (GC) Genzyme [1, 15]: 100%
% inhibition α-D-mannosidase Jack bean [6]: 8%
% inhibition N-acetyl-β-D gluc Bovine kidney [3]: 0%
% inhibition α-D-glucosidase Yeast ([4]; 0.8 mM): 18%
% inhibition α-D-glucosidase Bacillus [7]: −5%
% inhibition N-acetyl-β-D-gluc Jack bean [8]: 0%
% inhibition β-D-mannosidase C. fimi [9]: −5%
% inhibition α-D-galactosidase Green coffee [10]: 99%
% inhibition α-D-glucosidase rat intestine [11]: 22%
% inhibition β-D-galactosidase bovine liver [12]: 44%
% inhibition β-D-glucosidase almond ([5]; 0.8 mM): 96%

Structure (SMILES): O=c1c(O)c(-c2ccc(O)c(O)c2)oc2cc(O)cc(O)c12 [quercetin]
inhibition at 5000 µg/mL [1, 15]: 39.4%
effect on β-glucocerebrosidase activity, in words [1]: inhibited the enzyme

Structure (SMILES): Cn1cc(C(=O)O)ccc1=O [6-OH-trigonelline]
% inhibition Cerezyme (β-glucocerebrosidase) [1, 15]: 8.6%

Structure (SMILES): O=C(O)c1ccc(=O)[nH]c1 [6-OH-nicotinic acid]
% inhibition Cerezyme (β-glucocerebrosidase) [1, 15]: −1.4%

More lines, main results first:

inhibition at 10000 µg/mL [1, 15]: -1.6%
Structure (SMILES): Nc1cc[nH]c(=O)n1 [cytosine]

inhibition at 5000 µg/mL [1, 15]: -11.3%
Structure (SMILES): NC(=O)c1cccnc1 [nicotinamide]

inhibition at 5000 µg/mL [1, 15]: 4.5%
Structure (SMILES): O=c1cc[nH]c(=O)[nH]1 [uracil]

inhibition at 5000 µg/mL [1, 15]: -12.7%
Structure (SMILES): O=C(O)c1cccnc1 [nicotinic acid]

inhibition at 10000 µg/mL [1, 15]: -22%
Structure (SMILES): Nc1ncnc2nc[nH]c12 [adenine]
effect on β-glucocerebrosidase activity, in words [1]: some promotion activity but weaker than that seen with the yogurts

inhibition at 5000 µg/mL [1, 15]: -1.8%
Structure (SMILES): O=C(O)/C=C/c1ccc(O)c(O)c1 [caffeic acid]
